According to article PMC4394749 (Journal of medicinal chemistry, 2015):
Read-outs that look alike come from different tables or passages of the source.

Assays:
[1] = test system: ZR-75-1 (estrogen-receptor-positive, HER2-positive breast cancer); assay: SRB antiproliferative assay, ZR-75-1; assay type: cell-based, human; conditions: read-out: IC50 ZR-75-1, 72 h
[2] = test system: MDA-MB-231 (triple-negative breast cancer); assay: SRB antiproliferative assay, MDA-MB-231; assay type: cell-based, human; conditions: read-out: IC50 MDA-MB-231, 72 h
[3] = test system: SK-BR-3 (HER2-overexpressing breast cancer); assay: SRB antiproliferative assay, SK-BR-3; assay type: cell-based, human; conditions: read-out: IC50 SK-BR3, 72 h
[4] = test system: A549 (lung carcinoma); assay: SRB antiproliferative assay, A549; assay type: cell-based, human; conditions: read-out: IC50 A549, 72 h
[5] = test system: KB-VIN cells; assay: Tubulin assembly in KB-VIN cells; assay type: cell-based, human; conditions: data not shown
[6] = test system: KB-VIN (P-gp-overexpressing MDR subline of KB); assay: SRB antiproliferative assay, KB-VIN; assay type: cell-based, human; conditions: read-out: IC50 KB-VIN, 72 h
[7] = test system: MCF-7 (estrogen-receptor-positive, HER2-negative breast cancer); assay: SRB antiproliferative assay, MCF-7; assay type: cell-based, human; conditions: read-out: IC50 MCF-7, 72 h
[8] = test system: PC-3 (prostate cancer); assay: SRB antiproliferative assay, PC-3; assay type: cell-based, human; conditions: read-out: IC50 PC-3; SRB, 72 h
[9] = test system: tumor cell lines overexpressing P-gp; conditions: cited from earlier work
[10] = target: T1, bovine brain tubulin (Bos taurus, UniProt P81947+Q6B856); assay: Inhibition of purified tubulin assembly; assay type: biochemical
T1 sequence (P81947 whole entry): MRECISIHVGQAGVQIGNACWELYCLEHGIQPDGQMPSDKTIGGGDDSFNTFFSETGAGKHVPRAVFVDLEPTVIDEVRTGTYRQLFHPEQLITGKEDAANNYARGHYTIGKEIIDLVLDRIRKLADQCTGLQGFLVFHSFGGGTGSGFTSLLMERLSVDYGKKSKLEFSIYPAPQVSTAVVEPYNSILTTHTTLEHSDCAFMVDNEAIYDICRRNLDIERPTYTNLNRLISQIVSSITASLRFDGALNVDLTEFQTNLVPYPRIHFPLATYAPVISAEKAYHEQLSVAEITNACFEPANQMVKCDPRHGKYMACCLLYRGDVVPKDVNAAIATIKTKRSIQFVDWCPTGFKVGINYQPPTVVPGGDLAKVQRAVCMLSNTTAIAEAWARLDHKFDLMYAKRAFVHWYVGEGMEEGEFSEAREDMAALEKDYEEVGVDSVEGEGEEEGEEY
T1 sequence (Q6B856 whole entry): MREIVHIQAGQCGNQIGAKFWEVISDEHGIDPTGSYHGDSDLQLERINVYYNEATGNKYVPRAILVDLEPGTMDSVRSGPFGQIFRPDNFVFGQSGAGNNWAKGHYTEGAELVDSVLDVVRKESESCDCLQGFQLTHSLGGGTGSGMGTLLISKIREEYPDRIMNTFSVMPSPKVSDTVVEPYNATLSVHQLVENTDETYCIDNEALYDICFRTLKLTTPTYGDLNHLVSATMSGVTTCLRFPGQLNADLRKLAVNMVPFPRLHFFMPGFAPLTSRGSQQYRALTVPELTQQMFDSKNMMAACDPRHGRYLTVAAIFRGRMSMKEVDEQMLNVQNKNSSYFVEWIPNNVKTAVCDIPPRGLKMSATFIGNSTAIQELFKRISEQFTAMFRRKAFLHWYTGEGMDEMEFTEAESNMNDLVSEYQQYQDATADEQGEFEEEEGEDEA

[11] = test system: KB (epidermoid carcinoma of the nasopharynx); assay: SRB antiproliferative assay, KB; assay type: cell-based, human; conditions: read-out: IC50 KB, 72 h
[12] = test system: PC-3 (prostate cancer); conditions: read-out: IC50 PC-3; SRB; compound marked 'See ref [15]'; cited from earlier work
[13] = test system: PC-3 cells; assay: Cell cycle analysis by flow cytometry; assay type: cell-based, human; conditions: 2 µM, 24 h
[14] = test system: SK-BR-3 (HER2-overexpressing breast cancer); conditions: read-out: IC50 SK-BR3; SRB; compound marked 'See ref [15]'; cited from earlier work
[15] = test system: HepG2 (hepatocellular carcinoma); conditions: read-out: IC50 Hep-G2; SRB; compound marked 'See ref [15]'; cited from earlier work
[16] = test system: KB (epidermoid carcinoma of the nasopharynx); conditions: read-out: IC50 KB; SRB; compound marked 'See ref [15]'; cited from earlier work
[17] = target: ZR-75-1 (estrogen-receptor-positive, HER2-positive breast cancer); conditions: read-out: IC50 ZR-75-1; SRB; compound marked 'See ref [15]'; cited from earlier work
[18] = test system: KB-VIN (P-gp-overexpressing MDR subline of KB); conditions: read-out: IC50 KB-VIN; SRB; compound marked 'See ref [15]'; cited from earlier work
[19] = test system: KB-VIN cells; assay: Cell cycle analysis by flow cytometry; assay type: cell-based, human; conditions: 6 or 24 h, PXL 3 µM, 4 0.5 µM, 8 2 µM
[20] = target: MCF-7 (estrogen-receptor-positive, HER2-negative breast cancer); conditions: read-out: IC50 MCF-7; SRB; compound marked 'See ref [15]'; cited from earlier work
[21] = test system: PC-3 cells; assay: Immunofluorescence staining of microtubules in PC-3 cells; assay type: cell-based, human; conditions: PC-3, 24 h; for microtubule morphology: equitoxic concentrations: 0.2 µM 4, 0.2 µM CA-4, 5 µM VIN, 0.2 µM PXL; for dose-dependent effects on microtubule morphology: compounds 0.2, 2 or 20 µM, CA-4 0.002 or 20 µM
[22] = test system: A549 (lung carcinoma); conditions: read-out: IC50 A549; SRB; compound marked 'See ref [15]'; cited from earlier work
[23] = test system: MDA-MB-231 (triple-negative breast cancer); conditions: read-out: IC50 MDA-MB-231; SRB; compound marked 'See ref [15]'; cited from earlier work
[24] = test system: HCT-8 (human colon adenocarcinoma); conditions: read-out: IC50 HCT-8; SRB; compound marked 'See ref [15]'; cited from earlier work
[25] = test system: KB cells; assay: Cell cycle analysis by flow cytometry; assay type: cell-based, human; conditions: 6 or 24 h, PXL 0.02 µM, 4 0.5 µM, 8 2 µM
[26] = test system: HepG2 (hepatocellular carcinoma); assay: SRB antiproliferative assay, HepG2; assay type: cell-based, human; conditions: for IC50: read-out: IC50 Hep-G2, 72 h
[27] = test system: HCT-8 (human colon adenocarcinoma); assay: SRB antiproliferative assay, HCT-8; assay type: cell-based; conditions: SRB, 72 h; for IC50: read-out: IC50 HCT-8
[28] = target: T1, bovine brain tubulin; assay: Inhibition of [3H]colchicine binding to tubulin; conditions: for ICB, percent inhibition of colchicine binding: 5 µM [3H]colchicine, 1 µM tubulin, 5 µM test compound
[29] = test system: human tumor cell lines; assay: SRB antiproliferative assay, comparison across tumor cell lines; assay type: cell-based

SMILES	IC50 [1]	IC50 [2]	IC50 [3]	IC50 [4]	IC50 [7]	IC50 [8]	IC50 [11]	IC50 [26]	IC50 [27]	IC50 [6]	other results
CC1=C(O)C(C)(C)c2oc(-c3ccccc3)cc(=O)c2C1=O [Compound 1, Desmosdumotin B, reference compound]	> 40000 nM	> 40000 nM	> 40000 nM	> 40000 nM	> 40000 nM	> 40000 nM	> 135000 nM			6760 nM	effect on tubulin assembly in cells [5]: no effects on tubulin assembly; selective index (SI), IC50 against non-MDR cells divided by IC50 against MDR cells [9]: > 20; ITA, inhibition of purified tubulin assembly, EC50 ([10]; 10 µM tubulin, 0.4 mM GTP, 30 °C, NA = not active): no effects on tubulin assembly
CCC1=C(O)c2c(oc(-c3ccccc3)cc2=O)C(CC)(CC)C1=O [Compound 2, 6,8,8-triethyldesmosdumotin B]											selective index (SI), IC50 against non-MDR cells divided by IC50 against MDR cells [9]: > 220
CCC1=C(O)c2c(oc(-c3csc4ccccc34)cc2=O)C(CC)(CC)C1=O [Compound 4, 2-(benzo[b]thiophene-3′-yl)-6,8,8-triethyldesmosdumotin B]											IC50 [12]: 160 nM; effect on cell cycle distribution [13]: efficiently induced accumulation of G2/M phase cells; IC50 [14]: 500 nM; IC50 [15]: 130 nM; IC50 [16]: 80 nM; IC50 [17]: 850 nM; IC50 [18]: 70 nM; effect on cell cycle distribution [19]: Accumulation of G2/M phase as well as S phase cells; IC50 [20]: 720 nM; microtubule morphology [21]: induced depolymerization of cytosolic microtubules as well monopolar (arrow heads) or multipolar spindle formations in the G2/M-phase; dose-dependent effects on microtubule morphology [21]: Dose-dependent disruption of both interphase microtubules and spindles; IC50 [22]: 60 nM; IC50 [23]: 700 nM; IC50 [24]: 130 nM; effect on cell cycle distribution [25]: Accumulation of G2/M phase as well as S phase cells
CC(=O)O[C@H]1C(=O)[C@@]2(C)[C@H]([C@H](OC(=O)c3ccccc3)[C@]3(O)C[C@H](OC(=O)[C@H](O)[C@@H](NC(=O)c4ccccc4)c4ccccc4)C(C)=C1C3(C)C)[C@]1(OC(C)=O)CO[C@@H]1C[C@@H]2O [PXL, paclitaxel, reference compound]											effect on cell cycle distribution [19]: did not show any effect; microtubule morphology [21]: inhibited the onset of mitosis and arrested cells at prometaphase with condensed chromosomes; effect on cell cycle distribution [25]: significantly impacted the cell cycle

Further lines, with some results ahead:

IC50 [1]	IC50 [2]	IC50 [3]	IC50 [4]	IC50 [7]	IC50 [8]	IC50 [11]	IC50 [26]	IC50 [27]	SMILES	IC50 [6]	other results
11600 nM	710 nM	650 nM	1780 nM	2750 nM	1730 nM	2010 nM	1290 nM	1710 nM	CCC1=C(O)c2c(oc(-c3csc4cccc(O)c34)cc2=O)C(CC)(CC)C1=O [Compound 6, 2-(4′-Hydroxybenzo[b]thiophen-3′-yl)-6,8,8-triethyldesmos-dumotin B]		effect on cell cycle distribution [13]: efficiently induced accumulation of G2/M phase cells; dose-dependent effects on microtubule morphology [21]: Dose-dependent disruption of both interphase microtubules and spindles; ICB, percent inhibition of colchicine binding [28]: 70%; inhibitory effect on colchicine binding, fold greater than 8 ([28]; 6 compared with 8): 2 fold; inhibitory effect on tubulin assembly, fold greater than 8 ([10]; 6 compared with 8): 2 fold
9810 nM	8170 nM	7970 nM	15800 nM	7220 nM	8510 nM	12100 nM			CCC1=C(O)c2c(oc(-c3csc4c(OC)cccc34)cc2=O)C(CC)(CC)C1=O [Compound 12, 2-(7′-Methoxybenzo[b]thiophen-3′-yl)-6,8,8-triethyldes-mosdumotin B]	10700 nM	IC50 Hep-G2 ([26]; 72 h): NA (NA, not active (IC50 > 10 µg/mL)); IC50 HCT-8 [27]: NA (NA, not active (IC50 > 10 µg/mL))
			940 nM		1110 nM	740 nM	370 nM	1020 nM	CCC1=C(O)c2c(oc(-c3ccc(O)c4ccccc34)cc2=O)C(CC)(CC)C1=O [Compound 16, 2-(4′-Hydroxynaphthalen-1′-yl)-6,8,8-triethyldesmosdumo-tin B]	450 nM	antiproliferative effect, times greater than parent compound 5 ([29]; HepG2, KB and KB-VIN): 2–6 times; ICB, percent inhibition of colchicine binding [28]: 54%
		13800 nM	14900 nM		12900 nM	19900 nM	13400 nM	14100 nM	CCC1=C(O)c2c(oc(-c3ccc4cc(O)ccc4c3)cc2=O)C(CC)(CC)C1=O [Compound 19, 2-(6′-Hydroxynaphthalen-2′-yl)-6,8,8-triethyldesmosdumo-tin B]	13700 nM	fold less active than 15 and 16 ([29]; generally, over the tested cell lines): ~10 fold
